Reference: patent publication US4889860A (Nova Pharmaceutical Corporation, priority 1987, dated 1989)
Entries after “also recorded” stand apart in the source; their conditions may differ. Where two headings read alike, the source gives them in different places.

Key:
writhing response = assay: animal or person; assay type: in vivo, mouse; conditions: for ED50: Mus musculus, Table 7, read-out: ED50, Acetic Acid Induced Writhing in the Mouse
mu-type opioid receptor = target: T1, mu-type opioid receptor (Rattus norvegicus, UniProt P33535); assay: inhibition of specific [^3 H] DAGO binding to rat forebrain membranes; conditions: Table 6, [^3 H] DAGO, mean of three experiments
T1 construct: using rat forebrain membranes; from tissue; host or cells: rat forebrain membranes
Protocol: (§1) The interaction of some of the novel compounds with mu and delta-type opioid receptors present in brain membranes was examined in vitro. […] DAGO (mu-type receptor) or [^3 H] DADLE (delta-type receptor) was determined using rat forebrain membranes. Computer assisted analysis (EBDA) was used to determine apparent Ki values for the various compounds.
(§2) Values represent the MEAN±S.E.M. of the Ki(nM) for each compound to inhibit specific binding of the indicated ligand to rat brain membranes. The values are from two-five separate experiments and were calculated according to the method of Cheng and Prusoff [Biochem. Pharmacol. 1973, 22, 3099-3108] together with the EBDA Program. Numbers in parentheses are the mean Hill coefficients for each compound to inhibit ligand binding.
as §2, with “two.div.seven” for “two-five”, “Prusoff” for “Prusoff [Biochem. Pharmacol. 1973, 22, 3099-3108]”, “program.” for “Program.”, “binding. N.D.=not determined” for “binding.”
(§3) The interaction of some of the novel compounds with mu, delta and kappa - type opioid receptors present in brain membranes was examined in vitro. […] DAGO (mu-type receptor), or [^3 H] DADLE (Delta-type receptor) using rat forebrain membranes and [^3 H] EKC (kappa-type receptor) using guiniea pig cerebellum membrane was determined. Computer assisted analysis (EBDA) was used to determine apparent Ki values for the various compounds.
(§4) The values represent the MEAN±S.E.M. of the Ki(nM) for each compound to inhibit specific binding of the indicated ligand. Each value represents the mean of three individual experiments performed on separate occasions.

[1] = target: T2, kappa-type opioid receptor (Cavia porcellus, UniProt P41144); assay: inhibition of specific [^3 H] EKC binding to guinea pig cerebellum membrane
T2 construct: using guiniea pig cerebellum membrane; from tissue; host or cells: guinea pig cerebellum membranes
Protocol: as §3, §4

tail flick response = assay: radiant heat tail flick analgesia in rats; assay type: in vivo, rat
Protocol: The analgesic properties of the compounds prepared in accordance with Examples III and IV were evaluated in rats using the radiant heat and tail flick paradigm. […] Flick latencies in FIGS. 11-13 were determined at 30 minute intervals through 3.5 h and the data was expressed as a percentage of the maximum possible effect (% MPE). A 15 sec. cut-off latency was used to minimize tissue damage. The values shown are the mean values for 6 rats.
A 15 sec. cut-off latency was used to prevent tissue damage.
The analgesic properties of compounds XXII and XXIII were evaluated in rats using the writhing assay and tail flick paradigm. […] The writhing assay which uses a chemical stimulus to produce pain, is believed to be more sensitive to kappa agonist activity than other measures of analgesia which uses a heat stimulus (Dykstra, L.A. Behavioral Pharmacology: The Current Status, N.Y.: Allan R. Liss. Inc. 1985).

[2] = target: delta-type opioid receptor (Rattus norvegicus, UniProt P33533); assay: inhibition of specific [^3 H] DADLE binding to rat forebrain membranes; conditions: read-out: (Ki) nM, δ receptor (Rat Forebrain); Table 6; [^3 H] DADLE, mean of three experiments
Protocol: as §1, §2
as §2, with “two.div.seven” for “two-five”, “Prusoff” for “Prusoff [Biochem. Pharmacol. 1973, 22, 3099-3108]”, “program.” for “Program.”, “binding. N.D.=not determined” for “binding.”
as §3, §4

[3] = tested on: oxymorphonazine (OMZ)-induced analgesia; assay: antagonism of oxymorphonazine (OMZ)-induced analgesia (tail flick) in rats; assay type: in vivo, rat; conditions: for ED50 / ED100: Rattus norvegicus, sc, Table 8; for ED50 / ED100 / Percent Antagonism at 1 Hr / Percent Antagonism at 1.5 Hr / Percent Antagonism at 2 Hr / Percent Antagonism at 3 Hr / Percent Antagonism at 4 Hr / Percent Antagonism at 6 Hr / Percent Antagonism at 8 Hr: S.C.; for ED50: read-out: ED 50, oxymorphonazine antagonism; for ED100: read-out: ED 100, oxymorphonazine antagonism; for Percent Antagonism at 1 Hr / Percent Antagonism at 1.5 Hr / Percent Antagonism at 2 Hr / Percent Antagonism at 3 Hr / Percent Antagonism at 4 Hr / Percent Antagonism at 6 Hr / Percent Antagonism at 8 Hr: dose tested (mg/kg): Naltrexone 0.5, Nalmefene 1.0, XI 10.0, XII 2.5, XIII 0.5, XIV 5.0
Protocol: The compound of Example XII was evaluated for its potency and duration in the antagonism of oxymorphonazine (OMZ)-induced analgesia. […] Data represent the mean SEM of 4-5 animals per group.
(Cowan A. Trendsin Pharmacology Science, 7:69-72, 1986) With this test the intracerebroventricular administration of bombesin produces a characteristic scratching response.

[4] = food intake in 24 hr food-deprived rats; assay type: in vivo, rat; conditions: for Food Intake in Grams: Table 3, 24 hr; for Cumulative Food Intake in Grams: Table 4
Protocol: (§5) Rats were given water and powdered food ad lib for 8 days until food intake had stabilized, and body weight and food and water intakes were recorded at the same time every day. Animals were assigned to treatment groups matched on the basis of their 24 hr food consumption on the last baseline day, and rats were food deprived for 24 hr immediately before injection of the test compound. […] The compound of Example XII was injected S.C. at doses of 1.15, 2.31, 11.55 and 23.09 μmol/kg, in a volume of 4 ml/kg of 0.3% acetic acid. Controls were injected with the vehicle solutions in the appropriate volumes. Food and water intakes were measured at 1, 3 and 24 hr after treatment. Data for each measure and time point were analyzed by one-way analysis of variance (ANOVA), and post-hoc comparisons were performed using Dunnett's test in order to compare the control mean to each of the treatment means.
(§6) Rats were given water and powdered food for 8 days, and following this,
(§7) Testing was performed as described above, and baseline measurements were recorded for 7 days. […] The compound of Example XII was injected at doses of 11.55, 23.09, 46.19 and 92.38 μmol/kg by suspension in a solution of 1:1 DMSO:water in a volume of 3 ml/kg. Food and water intakes were recorded at 1, 2, 4 and 6 h following treatment.
See Table 3 for experimental details, except that baseline measures were […]

[5] = water intake in 24 hr food-deprived rats; assay type: in vivo, rat; conditions: for effect on water intake: S.C.; for Water Intake: Table 3, 24 hr; for Cumulative Water Intake: Table 5
Protocol: as §5, §6, §7
See Table 3 for experimental details, except that baseline measurements

Chain of delta-type opioid receptor (P33533 whole entry): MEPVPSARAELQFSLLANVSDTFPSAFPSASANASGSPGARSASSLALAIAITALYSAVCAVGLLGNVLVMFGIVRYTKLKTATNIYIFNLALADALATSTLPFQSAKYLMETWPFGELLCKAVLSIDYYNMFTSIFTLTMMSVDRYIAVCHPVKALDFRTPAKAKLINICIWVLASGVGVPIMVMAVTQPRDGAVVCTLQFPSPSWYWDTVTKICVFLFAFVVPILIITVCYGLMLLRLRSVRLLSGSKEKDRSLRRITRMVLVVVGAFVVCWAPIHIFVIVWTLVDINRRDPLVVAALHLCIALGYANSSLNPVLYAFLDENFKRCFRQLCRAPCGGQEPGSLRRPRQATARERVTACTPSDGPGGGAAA
T2 sequence (P41144 whole entry): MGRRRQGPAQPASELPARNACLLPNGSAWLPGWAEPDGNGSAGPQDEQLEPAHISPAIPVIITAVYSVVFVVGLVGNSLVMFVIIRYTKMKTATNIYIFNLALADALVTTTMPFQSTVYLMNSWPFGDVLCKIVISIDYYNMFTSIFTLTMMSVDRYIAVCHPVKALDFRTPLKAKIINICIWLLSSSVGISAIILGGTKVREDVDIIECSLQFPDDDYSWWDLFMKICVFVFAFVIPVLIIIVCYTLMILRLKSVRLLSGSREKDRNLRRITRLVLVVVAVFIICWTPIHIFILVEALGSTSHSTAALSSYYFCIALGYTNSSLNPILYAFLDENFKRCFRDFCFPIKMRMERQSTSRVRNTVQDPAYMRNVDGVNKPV
T1 sequence (P33535 whole entry): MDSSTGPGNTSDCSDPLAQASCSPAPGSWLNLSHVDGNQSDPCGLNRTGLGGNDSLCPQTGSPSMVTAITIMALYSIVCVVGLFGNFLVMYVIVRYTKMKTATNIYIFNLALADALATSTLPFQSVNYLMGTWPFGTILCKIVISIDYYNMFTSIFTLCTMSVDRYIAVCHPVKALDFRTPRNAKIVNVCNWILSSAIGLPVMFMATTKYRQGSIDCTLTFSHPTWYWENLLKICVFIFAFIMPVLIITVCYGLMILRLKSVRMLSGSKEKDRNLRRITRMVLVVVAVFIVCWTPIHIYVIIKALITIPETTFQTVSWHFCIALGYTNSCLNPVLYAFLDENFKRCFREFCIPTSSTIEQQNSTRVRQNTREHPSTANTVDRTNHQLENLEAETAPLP

Oc1ccc2c3c1O[C@H]1C(=NOCCCc4ccccc4)CC[C@@]4(O)[C@@H](C2)N(CC2CC2)CC[C@]314 [Example XXIII]
ED50 (writhing response): 0.02 mg/kg
potency versus morphine to antagonize writhing response (writhing response; mouse, in vivo, ip): more potent than morphine to antagonize the writhing response
kappa selectivity and agonist activity (writhing response; writhing and tail flick): selective to kappa receptors and possess kappa agonist activity
Ki (mu-type opioid receptor; read-out: (Ki) nM, μ receptor (Rat Forebrain)): 0.32 nM
fold more potent to inhibit specific [3H]EKC ([1]; than other compounds or naltrexone): 100 fold
ED50 (tail flick response; Rattus norvegicus, Table 7, read-out: ED50, Antagonism of the Tail-Flick Response in the Rat): 1.84 mg/kg
antagonism of tail-flick response to heat (tail flick response; rat): effectively antagonized the tail-flick response to a heat stimulus in the rat
Ki [2]: 0.44 nM

C=C1CC[C@@]2(O)[C@H]3Cc4ccc(O)c5c4[C@@]2(CCN3CC2CC2)[C@H]1O5 [Nalmefene, reference compound]
ED50 (writhing response): > 30 mg/kg
Ki (mu-type opioid receptor; (Ki) nM, μ receptor (Rat Forebrain)): 0.64 nM
Ki [1]: 0.89 nM
Ki [2]: 0.87 nM
ED50 [3]: 0.12 mg/kg
ED100 [3]: 1.35 mg/kg
Percent Antagonism at 1 Hr [3]: 85%
Percent Antagonism at 1.5 Hr [3]: 92%
Percent Antagonism at 2 Hr [3]: 83%
Percent Antagonism at 3 Hr [3]: 73%
Percent Antagonism at 4 Hr [3]: 46%
Percent Antagonism at 6 Hr [3]: 0%
Percent Antagonism at 8 Hr [3]: 37%

O=C1CC[C@@]2(O)[C@H]3Cc4ccc(O)c5c4[C@@]2(CCN3CC2CC2)[C@H]1O5 [Naltrexone, naltrexone]
ED50 (writhing response): > 30 mg/kg
effect on feeding ([4]; S.C., 1, 3 and 24 hr, lower dose experiment (FIGS. 22, 23)): 14.66 and 29.33 μmol/kg doses of naltrexone inhibited feeding at 3 hr following treatment
effect on feeding ([4]; S.C., higher dose time course experiment, 0-6 hr): at all doses decreased feeling up to 4 hr after administration, and the two lower doses also decreased feeding at 6 hr post treatment
Food Intake in Grams ([4]; S.C. 1.47 μmol/kg): 33.0 ± 0.7 Grams
Food Intake in Grams ([4]; S.C. 2.93 μmol/kg): 33.2 ± 3.0 Grams
Food Intake in Grams ([4]; S.C. 14.66 μmol/kg): 37.6 ± 4.2 Grams
Food Intake in Grams ([4]; S.C. 29.33 μmol/kg): 40.7 ± 8.2 Grams
Cumulative Food Intake in Grams ([4]; S.C. 14.66 μmol/kg, 0-1 Hr): 3.6 ± 0.5 Grams
Cumulative Food Intake in Grams ([4]; S.C. 14.66 μmol/kg, 0-2 Hr): 3.6 ± 0.5 Grams
Cumulative Food Intake in Grams ([4]; S.C. 14.66 μmol/kg, 0-4 Hr): 4.0 ± 0.0 Grams
Cumulative Food Intake in Grams ([4]; S.C. 14.66 μmol/kg, 0-6 Hr): 5.2 ± 0.6 Grams
Cumulative Food Intake in Grams ([4]; S.C. 29.33 μmol/kg, 0-1 Hr): 3.2 ± 0.6 Grams
Cumulative Food Intake in Grams ([4]; S.C. 29.33 μmol/kg, 0-2 Hr): 3.2 ± 0.6 Grams
Cumulative Food Intake in Grams ([4]; S.C. 29.33 μmol/kg, 0-4 Hr): 4.4 ± 0.5 Grams
Cumulative Food Intake in Grams ([4]; S.C. 29.33 μmol/kg, 0-6 Hr): 5.2 ± 0.9 Grams
Cumulative Food Intake in Grams ([4]; S.C. 58.65 μmol/kg, 0-1 Hr): 2.8 ± 1.1 Grams
Cumulative Food Intake in Grams ([4]; S.C. 58.65 μmol/kg, 0-2 Hr): 2.8 ± 1.1 Grams
Cumulative Food Intake in Grams ([4]; S.C. 58.65 μmol/kg, 0-4 Hr): 3.2 ± 0.9 Grams
Cumulative Food Intake in Grams ([4]; S.C. 58.65 μmol/kg, 0-6 Hr): 6.4 ± 0.5 Grams
Cumulative Food Intake in Grams ([4]; S.C. 117.30 μmol/kg, 0-1 Hr): 3.6 ± 0.8 Grams
Cumulative Food Intake in Grams ([4]; S.C. 117.30 μmol/kg, 0-2 Hr): 3.6 ± 0.8 Grams
Cumulative Food Intake in Grams ([4]; S.C. 117.30 μmol/kg, 0-4 Hr): 4.8 ± 0.9 Grams
Cumulative Food Intake in Grams ([4]; S.C. 117.30 μmol/kg, 0-6 Hr): 7.6 ± 1.3 Grams
food intake in 4-6 hr interval ([4]; food intake/2 hr interval, FIGS. 26 and 27): rats treated with the two highest doses of naltrexone are beginning to resume feeding; also recorded: an increase in food consumption at some doses compared to controls
time course of antagonism of OMZ-induced analgesia, PO ([3]; PO, naltrexone 26.53 μmol/kg): a trend for progressive loss of the antagonistic effect over 0.5-4.0 hours, although the reversal was not complete by eight hours
ED50 [3]: 0.07 mg/kg
ED100 [3]: 0.62 mg/kg
Percent Antagonism at 1 Hr [3]: 98%
Percent Antagonism at 1.5 Hr [3]: 76%
Percent Antagonism at 2 Hr [3]: 79%
Percent Antagonism at 3 Hr [3]: 47%
Percent Antagonism at 4 Hr [3]: 30%
Percent Antagonism at 6 Hr [3]: 4%
Percent Antagonism at 8 Hr [3]: 4%
duration of antagonism of OMZ-induced analgesia, SC ([3]; SC, naltrexone 1.33 μmol/kg, OMZ 19 μmol/kg SC): up to 1 hr
effect on water intake ([5]; 1 and 3 hr, lower dose experiment (FIGS. 24, 25)): inhibited drinking at all doses tested at the 1 and 3 hr time points
effect on water intake ([5]; 1 and 3 hr, lower dose experiment (FIGS. 24, 25), listed as naltrexone): effectively inhibited drinking at all doses tested during the first three hours after administration
effect on water intake ([5]; higher dose time course experiment, 0-6 hr): significant effects at 0-1 hr, 0-2 hr and 0-4 hr
Water Intake ([5]; S.C. 1.47 μmol/kg): 69.0 ± 3.5 mL
Water Intake ([5]; S.C. 2.93 μmol/kg): 62.4 ± 3.8 mL
Water Intake ([5]; S.C. 14.66 μmol/kg): 53.4 ± 5.5 mL
Water Intake ([5]; S.C. 29.33 μmol/kg): 66.0 ± 2.8 mL
Cumulative Water Intake ([5]; S.C. 14.66 μmol/kg, 0-1 Hr): 5.2 ± 1.1 mL
Cumulative Water Intake ([5]; S.C. 14.66 μmol/kg, 0-2 Hr): 9.2 ± 1.1 mL
Cumulative Water Intake ([5]; S.C. 14.66 μmol/kg, 0-4 Hr): 15.2 ± 2.0 mL
Cumulative Water Intake ([5]; S.C. 14.66 μmol/kg, 0-6 Hr): 22.8 ± 2.1 mL
Cumulative Water Intake ([5]; S.C. 29.33 μmol/kg, 0-1 Hr): 5.2 ± 0.6 mL
Cumulative Water Intake ([5]; S.C. 29.33 μmol/kg, 0-2 Hr): 8.4 ± 0.5 mL
Cumulative Water Intake ([5]; S.C. 29.33 μmol/kg, 0-4 Hr): 15.2 ± 1.1 mL
Cumulative Water Intake ([5]; S.C. 29.33 μmol/kg, 0-6 Hr): 21.6 ± 3.1 mL
Cumulative Water Intake ([5]; S.C. 58.65 μmol/kg, 0-1 Hr): 3.6 ± 0.8 mL
Cumulative Water Intake ([5]; S.C. 58.65 μmol/kg, 0-2 Hr): 6.8 ± 0.6 mL
Cumulative Water Intake ([5]; S.C. 58.65 μmol/kg, 0-4 Hr): 13.2 ± 1.3 mL
Cumulative Water Intake ([5]; S.C. 58.65 μmol/kg, 0-6 Hr): 22.4 ± 2.6 mL
Cumulative Water Intake ([5]; S.C. 117.30 μmol/kg, 0-1 Hr): 3.6 ± 0.8 mL
Cumulative Water Intake ([5]; S.C. 117.30 μmol/kg, 0-2 Hr): 9.2 ± 0.9 mL
Cumulative Water Intake ([5]; S.C. 117.30 μmol/kg, 0-4 Hr): 16.0 ± 1.6 mL
Cumulative Water Intake ([5]; S.C. 117.30 μmol/kg, 0-6 Hr): 26.8 ± 3.4 mL
